Where two headings read alike, the source gives them in different places.
What was measured:
S. aureus RN450 = assay: In Vitro Anti-Bacterial Activity Assay (MIC), gram positive; format: cell-based; settings: Staphylococcus aureus, RN450, 18 h
E. coli mL308 225 = assay: In Vitro Anti-Bacterial Activity Assay (MIC), gram negative; format: cell-based; settings: Escherichia coli, ML308225, 18 h
[1] = MIC class, Table 3 (Continued), read-out: Gram+ activity
[2] = MIC class, Table 3 (Continued), read-out: Gram− activity
[3] = gram positive bacteria, read-out: Antibiotic Activity Gram + (MIC)
[4] = gram negative bacteria, read-out: Antibiotic Activity Gram − (MIC)

| Structure (SMILES) | MIC (S. aureus RN450; [1]) | MIC (E. coli mL308 225; [2]) | MIC (S. aureus RN450; [3]) | MIC (E. coli mL308 225; [4]) |
| --- | --- | --- | --- | --- |
| CN(C)[C@@H]1C(O)=C(C(N)=O)C(=O)[C@@]2(O)C(O)=C3C(=O)c4c(O)ccc(C#Cc5ccc(N(O)O)cc5)c4C[C@H]3C[C@@H]12 | < 4 µg/mL | < 4 µg/mL | – | – |
| Cc1ccc(CCc2ccc(O)c3c2C[C@H]2C[C@H]4[C@H](N(C)C)C(O)=C(C(N)=O)C(=O)[C@@]4(O)C(O)=C2C3=O)cc1 | < 4 µg/mL | < 4 µg/mL | – | – |
| CC(=O)c1ccc(-c2ccc(O)c3c2C[C@H]2C[C@H]4[C@H](N(C)C)C(O)=C(C(N)=O)C(=O)[C@@]4(O)C(O)=C2C3=O)cc1 | < 4 µg/mL | < 4 µg/mL | – | – |
| CCOC(=O)c1cccc(-c2ccc(O)c3c2C[C@H]2C[C@H]4[C@H](N(C)C)C(O)=C(C(N)=O)C(=O)[C@@]4(O)C(O)=C2C3=O)c1 | < 4 µg/mL | < 4 µg/mL | – | – |
| CN(C)[C@@H]1C(O)=C(C(N)=O)C(=O)[C@@]2(O)C(O)=C3C(=O)c4c(O)ccc(-c5ccc(Cl)o5)c4C[C@H]3C[C@@H]12 | < 4 µg/mL | < 4 µg/mL | – | – |
| CN(C)[C@@H]1C(O)=C(C(N)=O)C(=O)[C@@]2(O)C(O)=C3C(=O)c4c(O)ccc(/C=C/c5ccccc5)c4C[C@H]3C[C@@H]12 | < 4 µg/mL | < 4 µg/mL | – | – |
| CCOCc1cccc(-c2ccc(O)c3c2C[C@H]2C[C@H]4[C@H](N(C)C)C(O)=C(C(N)=O)C(=O)[C@@]4(O)C(O)=C2C3=O)c1 | < 4 µg/mL | < 4 µg/mL | – | – |
| COc1ccc(C#Cc2ccc(O)c3c2C[C@H]2C[C@H]4[C@H](N(C)C)C(O)=C(C(N)=O)C(=O)[C@@]4(O)C(O)=C2C3=O)cc1 | < 4 µg/mL | < 4 µg/mL | – | – |
| CN(C)[C@@H]1C(O)=C(C(N)=O)C(=O)[C@@]2(O)C(O)=C3C(=O)c4c(O)ccc(C#CC5(O)CCCCC5)c4C[C@H]3C[C@@H]12 | < 4 µg/mL | < 4 µg/mL | – | – |
| CN(C)CC#Cc1cc(N(C)C)c2c(c1O)C(=O)C1=C(O)[C@]3(O)C(=O)C(C(N)=O)=C(O)[C@@H](N(C)C)[C@@H]3C[C@@H]1C2 | > 4 µg/mL | > 4 µg/mL | – | – |
| COc1ccc(OC)c(-c2ccc(O)c3c2C[C@H]2C[C@H]4[C@H](N(C)C)C(O)=C(C(N)=O)C(=O)[C@@]4(O)C(O)=C2C3=O)c1 | < 4 µg/mL | < 4 µg/mL | – | – |
| CCc1ccc(O)c2c1C[C@H]1C[C@H]3[C@H](N(C)C)C(O)=C(C(N)=O)C(=O)[C@@]3(O)C(O)=C1C2=O | < 4 µg/mL | < 4 µg/mL | – | – |
| CN(C)[C@@H]1C(O)=C(C(N)=O)C(=O)[C@@]2(O)C(O)=C3C(=O)c4c(O)ccc(/C=C(\Cl)CO)c4C[C@H]3C[C@@H]12 | < 4 µg/mL | > 4 µg/mL | – | – |
| CN(C)[C@@H]1C(O)=C(C(N)=O)C(=O)[C@@]2(O)C(O)=C3C(=O)c4c(O)ccc(C#CC5=CCCCC5)c4C[C@H]3C[C@@H]12 | < 4 µg/mL | < 4 µg/mL | – | – |
| CN(C)[C@@H]1C(O)=C(C(N)=O)C(=O)[C@@]2(O)C(O)=C3C(=O)c4c(O)ccc(CC(Cl)C5=CCCCC5)c4C[C@H]3C[C@@H]12 (some centres unmarked) | < 4 µg/mL | < 4 µg/mL | – | – |
| Cc1cc(C)cc(/C=C2\c3cccc(O)c3C(=O)C3=C(O)[C@]4(O)C(=O)C(C(N)=O)=C(O)[C@@H](N(C)C)[C@@H]4[C@@H](O)[C@@H]32)c1 | < 4 µg/mL | < 4 µg/mL | – | – |
| Cc1ccc(C#Cc2ccc(O)c3c2C[C@H]2C[C@H]4[C@H](N(C)C)C(O)=C(C(N)=O)C(=O)[C@@]4(O)C(O)=C2C3=O)cc1 | < 4 µg/mL | < 4 µg/mL | – | – |
| Cc1ccc(-c2ccc(O)c3c2C[C@H]2C[C@H]4[C@H](N(C)C)C(O)=C(C(N)=O)C(=O)[C@@]4(O)C(O)=C2C3=O)s1 | < 4 µg/mL | < 4 µg/mL | – | – |
| COc1ccc(Cl)cc1-c1ccc(O)c2c1C[C@H]1C[C@H]3[C@H](N(C)C)C(O)=C(C(N)=O)C(=O)[C@@]3(O)C(O)=C1C2=O | < 4 µg/mL | < 4 µg/mL | – | – |
| CN(C)[C@@H]1C(O)=C(C(N)=O)C(=O)[C@@]2(O)C(O)=C3C(=O)c4c(O)ccc(-c5ccc(C#N)cc5)c4C[C@H]3C[C@@H]12 | < 4 µg/mL | < 4 µg/mL | – | – |
| CN(C)[C@@H]1C(O)=C(C(N)=O)C(=O)[C@@]2(O)C(O)=C3C(=O)c4c(O)ccc(-c5ccccc5Cl)c4C[C@H]3C[C@@H]12 | < 4 µg/mL | < 4 µg/mL | – | – |
| Cc1csc(-c2ccc(O)c3c2C[C@H]2C[C@H]4[C@H](N(C)C)C(O)=C(C(N)=O)C(=O)[C@@]4(O)C(O)=C2C3=O)c1 | < 4 µg/mL | < 4 µg/mL | – | – |
| CN(C)[C@@H]1C(O)=C(C(N)=O)C(=O)[C@@]2(O)C(O)=C3C(=O)c4c(O)ccc(-c5ccco5)c4C[C@H]3C[C@@H]12 | < 4 µg/mL | < 4 µg/mL | – | – |
| CN(C)[C@@H]1C(O)=C(C(N)=O)C(=O)[C@@]2(O)C(O)=C3C(=O)c4c(O)ccc(C#Cc5cccnc5)c4C[C@H]3C[C@@H]12 | < 4 µg/mL | < 4 µg/mL | – | – |
| CN(C)[C@@H]1C(O)=C(C(N)=O)C(=O)[C@@]2(O)C(O)=C3C(=O)c4c(O)ccc(C#Cc5ccccc5F)c4C[C@H]3C[C@@H]12 | < 4 µg/mL | < 4 µg/mL | – | – |

| Structure (SMILES) | MIC (S. aureus RN450; [1]) | MIC (E. coli mL308 225; [2]) | MIC (S. aureus RN450; [3]) | MIC (E. coli mL308 225; [4]) |
| --- | --- | --- | --- | --- |
| COc1ccc(CCc2ccc(O)c3c2C[C@H]2C[C@H]4[C@H](N(C)C)C(O)=C(C(N)=O)C(=O)[C@@]4(O)C(O)=C2C3=O)cc1 | < 4 µg/mL | < 4 µg/mL | – | – |
| COc1cccc(C#Cc2ccc(O)c3c2C[C@H]2C[C@H]4[C@H](N(C)C)C(O)=C(C(N)=O)C(=O)[C@@]4(O)C(O)=C2C3=O)c1 | < 4 µg/mL | < 4 µg/mL | – | – |
| CCC(CC)c1ccc(CCc2ccc(O)c3c2C[C@H]2C[C@H]4[C@H](N(C)C)C(O)=C(C(N)=O)C(=O)[C@@]4(O)C(O)=C2C3=O)cc1 | < 4 µg/mL | < 4 µg/mL | – | – |
| CN(C)[C@@H]1C(O)=C(C(N)=O)C(=O)[C@@]2(O)C(O)=C3C(=O)c4c(O)ccc(C#CCc5ccccc5)c4C[C@H]3C[C@@H]12 | < 4 µg/mL | < 4 µg/mL | – | – |
| CN(C)[C@@H]1C(O)=C(C(N)=O)C(=O)[C@@]2(O)C(O)=C3C(=O)c4c(O)ccc(/C=C/S(C)(C)C)c4C[C@H]3C[C@@H]12 | < 4 µg/mL | < 4 µg/mL | – | – |
| CC#Cc1ccc(O)c2c1C[C@H]1C[C@H]3[C@H](N(C)C)C(O)=C(C(N)=O)C(=O)[C@@]3(O)C(O)=C1C2=O | < 4 µg/mL | < 4 µg/mL | – | – |
| Cc1cc(C)cc(-c2cc(N(C)C)c3c(c2O)C(=O)C2=C(O)[C@]4(O)C(=O)C(C(N)=O)=C(O)[C@@H](N(C)C)[C@@H]4C[C@@H]2C3)c1 | < 4 µg/mL | < 4 µg/mL | – | – |
| Cc1ccsc1/C=C/c1ccc(O)c2c1C[C@H]1C[C@H]3[C@H](N(C)C)C(O)=C(C(N)=O)C(=O)[C@@]3(O)C(O)=C1C2=O | < 4 µg/mL | < 4 µg/mL | – | – |
| COc1ccc(/C=C/c2ccc(O)c3c2C[C@H]2C[C@H]4[C@H](N(C)C)C(O)=C(C(N)=O)C(=O)[C@@]4(O)C(O)=C2C3=O)cc1OC | < 4 µg/mL | < 4 µg/mL | – | – |
| C[C@H]1c2ccc(N(C)C3CCN(C)CC3)c(O)c2C(=O)C2=C(O)[C@]3(O)C(=O)C(C(N)=O)=C(O)[C@@H](N(C)C)[C@@H]3[C@@H](O)[C@@H]21 | – | – | > 4 µg/mL | > 4 µg/mL |
| CN(C)[C@@H]1C(O)=C(C(N)=O)C(=O)[C@@]2(O)C(O)=C3C(=O)c4c(ccc(NC5CCN(Cc6ccccc6)CC5)c4O)C[C@H]3C[C@@H]12 | – | – | > 4 µg/mL | > 4 µg/mL |
| COC(=O)c1ccc(O)c2c1C[C@H]1C[C@H]3[C@H](N(C)C)C(O)=C(C(N)=O)C(=O)[C@@]3(O)C(O)=C1C2=O | – | – | < 4 µg/mL | < 4 µg/mL |
| CN1CCC(N(C)c2ccc3c(c2O)C(=O)C2=C(O)[C@]4(O)C(=O)C(C(N)=O)=C(O)[C@@H](N(C)C)[C@@H]4C[C@@H]2C3)CC1 | – | – | > 4 µg/mL | > 4 µg/mL |
| CCCCN(c1ccc2c(c1O)C(=O)C1=C(O)[C@]3(O)C(=O)C(C(N)=O)=C(O)[C@@H](N(C)C)[C@@H]3[C@@H](O)[C@@H]1[C@H]2C)C1CCN(C)CC1 | – | – | < 4 µg/mL | > 4 µg/mL |
| CN(C)[C@@H]1C(O)=C(C(N)=O)C(=O)[C@@]2(O)C(O)=C3C(=O)c4c(O)ccc(C5CCOC5)c4C[C@H]3C[C@@H]12 (some centres unmarked) | – | – | < 4 µg/mL | < 4 µg/mL |
| CCc1cc(NCC(C)C)c(O)c2c1C[C@H]1C[C@H]3[C@H](N(C)C)C(O)=C(C(N)=O)C(=O)[C@@]3(O)C(O)=C1C2=O | – | – | < 4 µg/mL | < 4 µg/mL |
| CN(C)[C@@H]1C(O)=C(C(N)=O)C(=O)[C@@]2(O)C(O)=C3C(=O)c4c(O)ccc(C(=O)C(=O)N5CCOCC5)c4C[C@H]3C[C@@H]12 | – | – | < 4 µg/mL | > 4 µg/mL |
| CN(C)C(=O)c1ccc(O)c2c1C[C@H]1C[C@H]3[C@H](N(C)C)C(O)=C(C(N)=O)C(=O)[C@@]3(O)C(O)=C1C2=O | – | – | < 4 µg/mL | > 4 µg/mL |
| CN(C)c1cc(CNCc2cccn2C)c(O)c2c1C[C@H]1C[C@H]3[C@H](N(C)C)C(O)=C(C(N)=O)C(=O)[C@@]3(O)C(O)=C1C2=O | – | – | < 4 µg/mL | > 4 µg/mL |
| CC(C)NCc1cc(N(C)C)c2c(c1O)C(=O)C1=C(O)[C@]3(O)C(=O)C(C(N)=O)=C(O)[C@@H](N(C)C)[C@@H]3C[C@@H]1C2 | – | – | < 4 µg/mL | > 4 µg/mL |
| CCC(=O)Nc1ccc2c(c1O)C(=O)C1=C(O)[C@]3(O)C(=O)C(C(N)=O)=C(O)[C@@H](N(C)C)[C@@H]3C[C@@H]1C2 | – | – | < 4 µg/mL | < 4 µg/mL |
| C#CCOC(=O)Nc1ccc2c(c1O)C(=O)C1=C(O)[C@]3(O)C(=O)C(C(N)=O)=C(O)[C@@H](N(C)C)[C@@H]3C[C@@H]1C2 | – | – | < 4 µg/mL | < 4 µg/mL |
| CN(C)C(=O)CNc1cc(N(C)C)c2c(c1O)C(=O)C1=C(O)[C@]3(O)C(=O)C(C(N)=O)=C(O)[C@@H](N(C)C)[C@@H]3C[C@@H]1C2 | – | – | > 4 µg/mL | > 4 µg/mL |
| CN1CCC(Nc2ccc(O)c3c2C[C@H]2C[C@H]4[C@H](N(C)C)C(O)=C(C(N)=O)C(=O)[C@@]4(O)C(O)=C2C3=O)CC1 | – | – | < 4 µg/mL | > 4 µg/mL |

Source: patent US20150141381A1, “TETRACYCLINE COMPOUNDS HAVING TARGET THERAPEUTIC ACTIVITIES” (Paratek Pharmaceuticals, Inc., priority 2001, published 2015)
